Entries after “also recorded” stand apart in the source; their conditions may differ.
Key:
[1] = tested on: psoriatic lesional skin; assay: Histopathological examination (H&E) of treated psoriatic lesional skin; type: in vivo, human; details: treated half of lesion, 24th hour
Procedure: (§1) At intervals of 4 hours, approximately 30 μl cream was applied directly onto the lesion and the cream-applied region was covered against accidental smearing and loss of the cream (FIG. 1 B).
FIG. 2A to FIG. 2W show histopathological and immunohistochemical examination findings of the tissue sections from the non-lesional skin, cyclopamine-treated lesional skin and non-treated lesional skin. Compared to the non-lesional skin (FIG. 2A), the non-treated lesional skin (FIG. 2B) is seen to display the typical histopathological signs of a psoriatic skin lesion mentioned above in the “Background of Invention”. Tissue sections from the cyclopamine-treated half of the original lesion reveal, however, dramatic improvement and regression to normalcy. These histopathological signs of regression to normalcy, exemplified in the FIG. 2C and FIG. 2D (examples from other cyclopamine-treated lesions and patients are given later) include the following: […]

[2] = tested on: epithelial antigen (Ber-EP4); assay: Immunohistochemical staining for the epithelial antigen with the Ber-EP4 antibody; type: in vivo, human; details: 24th hour
From the text: (§2) All reaction conditions were as recommended by the manufacturer.
The monoclonal antibody Ber-EP4 is known to label the basal layer cells in normal epidermis. The outer root sheath of hair follicles, where the hair stem cells are thought to reside, are also known to be labeled with Ber-EP4.

[3] = tested on: CD4 positive lymphocytes; assay: Immunohistochemical staining for the CD4 antigen in lesional skin; type: in vivo, human; details: treated half of lesion, 24th hour
From the text: as §2
Moreover, conversion of the CD4(−) and CD8(−) lymphocytes to the CD4(+) and CD8(+) lymphocytes is viewed widely in the prior art as a requirement for their psoriatic plaque causing action [reviewed in Krueger J G (2002) Journal of the American Academy of Dermatology 46:1-23].

[4] = tested on: CD44; assay: Immunohistochemical staining for the CD44 antigen; type: in vivo, human; details: lesional skin, 24th hour of treatment
From the text: What might be the key/proximal pathogenic event(s) intervened by cyclopamine? […] Both FIG. 4G and a closer-up view on FIG. 4H show decreased CD44 expression in the suprabasal and spinous layers in lesional epidermis in comparison to the situation in non-lesional epidermis.

[5] = tested on: basal cell carcinoma cells; details: found earlier, PCT/TR 01/00027; cited from earlier work
[6] = tested on: EGFR; assay: Immunohistochemical staining for EGFR; type: in vivo, human; details: lesional skin treated with cyclopamine cream for 24 hours
From the text: Epidermal growth factor receptor (EGFR) is another marker known to display downregulation of expression with the differentiation of epidermal keratinocytes. […] Ordinarily EGFR expression is not detected immunohistochemically in the suprabasal layers of normal epidermis and the return of EGFR expression to the basal layer of epidermis is regarded to be one of the first signs of effective treatment of psoriasis by various modalities [King L E Jr. et al (1990) Journal of Investigative Dermatology 95: 10S-12S]. We evaluated the EGFR expression with anti-human EGFR antibody EGFR 113 (Novocastra Lab. Ltd., U.K.) and with immunohistochemical staining with peroxidase.

[7] = tested on: psoriatic lesions; assay: Topical treatment of psoriatic lesions of patients, clinical response and EES scoring; type: in vivo, human
Procedure: The base cream used is made predominantly of heavy paraffin oil (10% w/w), vaseline (10% w/w), stearyl alcohol (8% w/w), polyoxylsteareth-40 (3% w/w) and water (68% w/w) but another suitably formulated base cream is also possible. […] The dosing and the application schedules followed for the lesion shown in FIG. 1A (psoriatic plaque on the dorsum of hand) are as follows: about 30 μl cream applied directly onto the lesion with the aid of a steel spatula every four hours for 24 hours. The cream-applied area is protected from accidental smearing and loss of the cream by covering with an aluminum applicator (FIG. 1 B). The dosing and the application schedules followed for the lesion shown in FIG. 1 D (psoriatic plaque at the scapular region) are as follows: about 30 μl cream applied directly onto the lesion every four hours for 24 hours. The cream-applied area is similarly covered against the smearing and loss of cream. Other treated psoriatic patients and lesions received from about 30 to 35 μl cream to each lesion at intervals of every 3 to 5 hours, as suitable and convenient. Lesions were similarly covered against the smearing and loss of cream. […] The corticosteroid used for treatment of the lesion shown in FIG. 4E was clobetasol 17-propionate in a final concentration of about 1.1 mM in base cream. […] Other corticosteroid molecules well known in the art are contemplated to be also suitable and capable of replacing the above-mentioned corticosteroid molecules at suitable concentrations (the suitable concentration ranges for corticosteroids are also known in the art).
as §1
Treatment was then discontinued and the lesion was followed-up.
Severity of psoriatic lesions can be assessed on a semi-quantitative scale by giving separate scores for the erythema, elevation and scaling of a lesion and then by summing up the scores to obtain a score called the EES score of that lesion (Bowman P. H. et al. (2002) J. Am. Acad. Dermatol. 46:907-913).

[8] = Follow-up of healthy / non-lesional skin after topical cyclopamine for adverse effects; details: for adverse effect of topical application on healthy / non-lesional skin: described concentration and dosing conditions
[9] = tested on: Ki-67 antigen; details: treated lesional skin, 24th hour
From the text: (§3) All antibodies and reagents for these immunohistochemical investigations were purchased from DAKO (Glostrup, Denmark); human Ki-67 antigen was detected by the monoclonal antibody M7187, human epithelial antigen was detected by the monoclonal antibody Ber-EP4, human CD4 antigen was detected by the monoclonal antibody M0716, human CD8 antigen was detected by the monoclonal antibody C8/144B. Besides the CD8 antigen, the monoclonal antibody C8/144B is known to recognize and bind to the cytokeratin 15 expressed by the hair stem cells (Kanitakis J. et al. (1999) Eur. J. Dermatol. 9:363-365). A DAKO “universal visualization kit” (LSAB2) employing biotinylated secondary antibody and peroxidase-conjugated streptavidin (pre-diluted to match the dilutions of DAKO-supplied primary antibodies) was used for the visualization reactions. All reaction conditions were as recommended by the manufacturer.
The Ki-67 antigen is a marker of the proliferating cells.

[10] = tested on: cytokeratin 15; assay: Immunohistochemical staining with the C8/144B antibody (cytokeratin 15); details: 24th hour
From the text: as §3

Question: For `CC1=C2C[C@H]3[C@@H](CC=C4C[C@@H](O)CC[C@@]43C)[C@@H]2CC[C@]12O[C@@H]1C[C@H](C)CN[C@H]1[C@H]2C` [cyclopamine], which “granular layer of epidermis” value [1] is on record?
Answer: Its value is “Vigorous re-appearance”.

Question: What about the “hyperkeratosis and parakeratosis in the stratum corneum” value [1] of the same compound?
Answer: Its value is “decreased but full normalization of this oldest epidermal layer did not yet happen”.

Question: What about the “inflammatory cells infiltrating the subepidermal dermis” value [1] of the same compound?
Answer: The value was “Disappearance from the cyclopamine-treated lesional skin of most of the inflammatory cells”.

Question: What about the “rete ridges and epidermal hyperplasia” value [1] of the same compound?
Answer: Its value is “Return of the thickened and elongated rete ridges to normal levels and marked decrease of epidermal hyperplasia”.

Question: And the “suprapapillary epidermis and papillary edema” value [1]?
Answer: The value was “Return of the thinning of the suprapapillary epidermis to normalcy and the disappearance of papillary edema”.

Question: What about the “Ber-EP4 staining of basal cells of non-lesional skin after exposure” value ([2]; non-lesional skin in psoriasis) of the same compound?
Answer: Its value is “remained Ber-EP4 positive”.

Question: And the “Ber-EP4 labeling of epidermal basal layer cells of lesional skin” value ([2]; treated lesional skin)?
Answer: Its value is “cyclopamine-induced reversion to normalcy; also recorded: Epidermal basal layer cells are seen to display the epithelial antigen; also recorded: reverted to normalcy”.

Question: And the “CD4 positive lymphocytes infiltrating the lesional skin” value [3]?
Answer: Its value is “Disappearance of the CD4 positive lymphocytes from the dermis of treated area; also recorded: largely cleared”.

Question: What about the “CD44 expression in lesional epidermis” value [4] of the same compound?
Answer: The value was “rapid induction and normalization of the CD44 expression; also recorded: increase and normalization of the expression of CD44”.

Question: And the “Ber-EP4 staining of basal cells of normal epidermis exposed under the same conditions” value [5]?
Answer: The value was “continued to be Ber-EP4 positive”.

Question: And the “effect on basal cell carcinoma cells (differentiation, Ber-EP4 staining)” value [5]?
Answer: Its value is “cause their differentiation and caused loss of their Ber-EP4 staining”.

Question: And the “EGFR expression in lesional epidermis” value [6]?
Answer: Its value is “rapidly normalized within 24 hours”.

Question: What about the “day on which the lesion cleared / became undetectable” value ([7]; 18 mM cyclopamine cream every fourth hour for 24 hours, then follow-up without treatment) of the same compound?
Answer: The value was greater than 8 days.

Question: What about the “days of continued treatment until the lesion cleared” value ([7]; application every fourth hour until clearance) of the same compound?
Answer: Its value is 3 to 4 days.

Question: And the “lesions subjected to single-day treatment that failed to clear completely” value ([7]; human, in vivo)?
Answer: Its value is “about 29%”.

Question: What about the “effectiveness on treated psoriatic lesions of different patients and body parts” value ([7]; patients 29 to 57 years, lesions on extremities to trunk) of the same compound?
Answer: The value was “highly effective on every psoriatic lesion for which it was used”.

Question: And the “appearance of lesion site on the 14th day of follow-up” value ([7]; plaque at left scapular region, 1 day of treatment, FIG. 1F)?
Answer: The value was “No lesion is visible, skin appears normal”.

Question: What about the “appearance of lesion after 1 day of treatment and 7 days of follow-up” value ([7]; plaque at left scapular region, FIG. 1E) of the same compound?
Answer: Its value is “With the possible exception of slight erythema, lesion is no longer visible”.

Question: What about the “site of the treated lesion over a month of follow-up” value ([7]; scapular plaque, 1 day of treatment) of the same compound?
Answer: The value was “healthy-looking normal skin”.

Question: And the “longest duration of follow-up of healthy skin with no adverse effect found” value ([8]; at the time of writing of the invention)?
Answer: The value was “over 14 months”.

Question: And the “adverse effect of topical application on healthy / non-lesional skin” value [8]?
Answer: The value was “no adverse effect has been detected”.

Question: And the “adverse effect of topical application on healthy / non-lesional skin” value ([8]; listed as Cyclopamine)?
Answer: Its value is “did not adversely affect the non-lesional skin; also recorded: no detectable adverse effect”.

Question: And the “follow-up of skin sites of application showing healthy-looking normal skin and hair” value ([8]; interval since filing of PCT/TR 02/00017)?
Answer: Its value is “more than 31 months”.

Question: And the “frequency and epidermal position of Ki-67 antigen positive cells” value [9]?
Answer: Its value is “Return of the Ki-67 displaying cells to the epidermal basal layer; also recorded: return of both the frequency and the epidermal position of the Ki-67 antigen positive cells to normalcy”.

Question: And the “cytokeratin 15 in basal cells of non-lesional epidermis after exposure” value ([10]; non-lesional skin)?
Answer: Its value is “continued to be positive for the cytokeratin 15”.

Question: And the “C8/144B (cytokeratin 15) labeling of epidermal basal layer cells of lesional skin” value ([10]; treated lesional skin)?
Answer: The value was “consistent restoration of the lost cytokeratin 15 expression; also recorded: normalized and became labeled by the C8/144B antibody”.
